Experimental data published in patent US9868772B2 (INDIANA UNIVERSITY RESEARCH AND TECHNOLOGY CORPORATION, priority 2012, dated 2018).
Numbered stars: 1 amine (or outer) side, 2 acyl side, 3 side chain; on linkers, the order of the positions; unused ones are H or OH. Square brackets hold non-standard residues; d marks the D form. Side chains are listed from the residue outwards. Peptide text beside a SMILES is read from it. * marks the point of attachment. γGlu = O=C(O)[C@H](CCC(=O)[*:2])N[*:1]; Palmitoyl = CCCCCCCCCCCCCCCC(=O)*; Aib = CC(C)(N)C(=O)O

Assays:
Experiment in all cases: cAMP induction, firefly luciferase reporter assay in HEK293 cells co-transfected with receptor
Assay type in all cases: cell-based
GIP receptor = molecular target: T1, GIP receptor (Homo sapiens, UniProt P48546)
T1 construct: expressed in transfected cells; host or cells: HEK293
T1 sequence (P48546 22-466): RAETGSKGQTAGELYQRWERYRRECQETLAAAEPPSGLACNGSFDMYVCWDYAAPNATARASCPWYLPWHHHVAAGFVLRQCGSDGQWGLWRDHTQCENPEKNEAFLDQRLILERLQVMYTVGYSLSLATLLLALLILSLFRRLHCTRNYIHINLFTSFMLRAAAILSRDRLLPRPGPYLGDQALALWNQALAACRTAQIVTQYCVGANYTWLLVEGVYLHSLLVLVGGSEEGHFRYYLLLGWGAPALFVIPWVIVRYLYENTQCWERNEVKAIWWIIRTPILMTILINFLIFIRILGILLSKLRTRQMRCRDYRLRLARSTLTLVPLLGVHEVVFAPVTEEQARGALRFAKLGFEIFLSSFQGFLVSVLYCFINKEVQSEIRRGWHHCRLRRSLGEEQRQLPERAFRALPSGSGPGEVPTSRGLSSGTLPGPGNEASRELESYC
Protocol: (§1) The ability of glucagon analogs to induce cAMP was measured in a firefly luciferase-based reporter assay. […] At the end of the incubation 100 microliters of LucLite luminescence substrate reagent (Perkin-Elmer, Wellesley, Mass.) were added to each well. […] Effective 50% concentrations were calculated by using Origin software (OriginLab, Northampton, Mass.

glucagon receptor = molecular target: T2, glucagon receptor (Homo sapiens, UniProt P47871)
T2 construct: expressed in transfected cells; host or cells: HEK293
Protocol: as §1

GLP-1 receptor = molecular target: T3, GLP-1 receptor (Homo sapiens, UniProt P43220)
T3 construct: expressed in transfected cells; host or cells: HEK293
Protocol: as §1

[1] = Table 2, analogs of SEQ ID NO: 10
[2] = Table 1, analogs of SEQ ID NO: 37

T2 sequence (P47871 26-477): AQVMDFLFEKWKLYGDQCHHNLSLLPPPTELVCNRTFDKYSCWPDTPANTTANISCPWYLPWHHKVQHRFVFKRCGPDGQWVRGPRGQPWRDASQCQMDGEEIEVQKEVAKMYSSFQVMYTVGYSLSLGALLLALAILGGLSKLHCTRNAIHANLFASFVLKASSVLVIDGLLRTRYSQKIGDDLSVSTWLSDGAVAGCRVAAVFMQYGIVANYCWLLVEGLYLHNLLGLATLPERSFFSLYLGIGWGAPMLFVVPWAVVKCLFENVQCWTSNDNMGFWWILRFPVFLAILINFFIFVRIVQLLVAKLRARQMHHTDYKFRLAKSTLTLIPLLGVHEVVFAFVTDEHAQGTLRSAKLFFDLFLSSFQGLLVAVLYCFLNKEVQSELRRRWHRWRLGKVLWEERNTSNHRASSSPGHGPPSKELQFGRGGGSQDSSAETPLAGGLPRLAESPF
T3 sequence (P43220 24-463): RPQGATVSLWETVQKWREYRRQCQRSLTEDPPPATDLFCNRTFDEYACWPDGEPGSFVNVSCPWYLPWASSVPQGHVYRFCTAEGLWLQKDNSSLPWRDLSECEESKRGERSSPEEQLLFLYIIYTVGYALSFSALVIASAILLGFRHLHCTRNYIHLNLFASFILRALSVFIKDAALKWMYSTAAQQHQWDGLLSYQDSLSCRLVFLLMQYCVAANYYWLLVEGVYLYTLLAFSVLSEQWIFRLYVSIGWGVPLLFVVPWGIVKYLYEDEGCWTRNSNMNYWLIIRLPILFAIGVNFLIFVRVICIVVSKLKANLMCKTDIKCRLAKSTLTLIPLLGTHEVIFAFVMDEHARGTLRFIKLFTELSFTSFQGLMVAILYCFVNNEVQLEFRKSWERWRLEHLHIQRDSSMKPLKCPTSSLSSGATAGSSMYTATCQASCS

CCCCCCCCCCCCCCCC(=O)N[C@@H](CCC(=O)NCCCC[C@H](NC(=O)[C@H](CC(=O)O)NC(=O)[C@H](CO)NC(=O)[C@@H](NC(=O)[C@H](Cc1ccccc1)NC(=O)[C@@H](NC(=O)CNC(=O)[C@H](CCC(=O)O)NC(=O)[C@H](C)NC(=O)CCc1ccc(O)cc1)[C@@H](C)O)[C@@H](C)O)C(=O)N[C@@H](CO)C(=O)N[C@@H](CCCCN)C(=O)N[C@@H](Cc1ccc(O)cc1)C(=O)N[C@@H](CC(C)C)C(=O)N[C@@H](CC(=O)O)C(=O)N[C@@H](CCC(=O)O)C(=O)N[C@@H](CCCNC(=N)N)C(=O)N[C@@H](C)C(=O)N[C@@H](C)C(=O)N[C@@H](CCC(N)=O)C(=O)N[C@@H](CC(=O)O)C(=O)N[C@@H](Cc1ccccc1)C(=O)N[C@H](C(=O)N[C@@H](CCC(N)=O)C(=O)N[C@@H](Cc1c[nH]c2ccccc12)C(=O)N[C@@H](CC(C)C)C(=O)N[C@@H](CC(C)C)C(=O)N[C@@H](CCC(=O)O)C(=O)NCC(=O)NCC(=O)N1CCC[C@H]1C(=O)N[C@@H](CO)C(=O)N[C@@H](CO)C(=O)NCC(=O)N[C@@H](C)C(=O)N1CCC[C@H]1C(=O)N1CCC[C@H]1C(=O)N1CCC[C@H]1C(=O)N[C@@H](CO)C(N)=O)C(C)C)C(=O)O [compound 145]
EC50 (GIP receptor; [1]): 3 pM
EC50 (glucagon receptor; [1]): 3730 pM
EC50 (GLP-1 receptor; [1]): 3 pM

CCCCCCCCCCCCCCCC(=O)N[C@@H](CCC(=O)NCCCC[C@H](NC(=O)[C@H](CC(=O)O)NC(=O)[C@H](CO)NC(=O)[C@@H](NC(=O)[C@H](Cc1ccccc1)NC(=O)[C@@H](NC(=O)CNC(=O)[C@H](CCC(N)=O)NC(=O)CNC(=O)[C@H](N)Cc1c[nH]cn1)[C@@H](C)O)[C@@H](C)O)C(=O)N[C@@H](CO)C(=O)N[C@@H](CCCCN)C(=O)N[C@@H](Cc1ccc(O)cc1)C(=O)N[C@@H](CC(C)C)C(=O)N[C@@H](CC(=O)O)C(=O)N[C@@H](CCC(=O)O)C(=O)N[C@@H](CCCNC(=N)N)C(=O)N[C@@H](C)C(=O)N[C@@H](C)C(=O)N[C@@H](CCC(N)=O)C(=O)N[C@@H](CC(=O)O)C(=O)N[C@@H](Cc1ccccc1)C(=O)N[C@H](C(=O)N[C@@H](CCC(N)=O)C(=O)N[C@@H](Cc1c[nH]c2ccccc12)C(=O)N[C@@H](CC(C)C)C(=O)N[C@@H](CC(C)C)C(=O)N[C@@H](CCC(=O)O)C(=O)NCC(=O)NCC(=O)N1CCC[C@H]1C(=O)N[C@@H](CO)C(=O)N[C@@H](CO)C(=O)NCC(=O)N[C@@H](C)C(=O)N1CCC[C@H]1C(=O)N1CCC[C@H]1C(=O)N1CCC[C@H]1C(=O)N[C@@H](CO)C(N)=O)C(C)C)C(=O)O [compound 23] (H-[dH]GQGTFTSDK([γGlu-Palmitoyl])SKYLDERAAQDFVQWLLEGGPSSGAPPPS-NH2; N-terminus assumed)
EC50 (GIP receptor; [2]): 43 pM
EC50 (glucagon receptor; [2]): 15 pM
EC50 (GLP-1 receptor; [2]): 3 pM

CCCCCCCCCCCCCCCC(=O)N[C@@H](CCC(=O)NCCCC[C@H](NC(=O)[C@H](CC(=O)O)NC(=O)[C@H](CO)NC(=O)[C@@H](NC(=O)[C@H](Cc1ccccc1)NC(=O)[C@@H](NC(=O)CNC(=O)[C@H](CCC(N)=O)NC(=O)[C@H](C)NC(=O)C(CN)Cc1c[nH]cn1)[C@@H](C)O)[C@@H](C)O)C(=O)N[C@@H](CO)C(=O)N[C@@H](CCCCN)C(=O)N[C@@H](Cc1ccc(O)cc1)C(=O)N[C@@H](CC(C)C)C(=O)N[C@@H](CC(=O)O)C(=O)N[C@@H](CCC(=O)O)C(=O)N[C@@H](CCCNC(=N)N)C(=O)N[C@@H](C)C(=O)N[C@@H](C)C(=O)N[C@@H](CCC(N)=O)C(=O)N[C@@H](CC(=O)O)C(=O)N[C@@H](Cc1ccccc1)C(=O)N[C@H](C(=O)N[C@@H](CCC(N)=O)C(=O)N[C@@H](Cc1c[nH]c2ccccc12)C(=O)N[C@@H](CC(C)C)C(=O)N[C@@H](CC(C)C)C(=O)N[C@@H](CCC(=O)O)C(=O)NCC(=O)NCC(=O)N1CCC[C@H]1C(=O)N[C@@H](CO)C(=O)N[C@@H](CO)C(=O)NCC(=O)N[C@@H](C)C(=O)N1CCC[C@H]1C(=O)N1CCC[C@H]1C(=O)N1CCC[C@H]1C(=O)N[C@@H](CO)C(N)=O)C(C)C)C(=O)O (some centres unmarked) [compound 25]
EC50 (GIP receptor; [2]): 64 pM
EC50 (glucagon receptor; [2]): 24 pM
EC50 (GLP-1 receptor; [2]): 3 pM

Ac-[dY]AQGTFTSDYSKYLDERAAQDFVQWLLEAGPSSGAPPPSK([γGlu-γGlu-Palmitoyl])G-NH2 [compound 159]
EC50 (GIP receptor; [1]): 80 pM
EC50 (glucagon receptor; [1]): 40 pM
EC50 (GLP-1 receptor; [1]): 9 pM

CCCCCCCCCCCCCCCC(=O)N[C@@H](CCC(=O)NCCCC[C@H](NC(=O)[C@H](CC(=O)O)NC(=O)[C@H](CO)NC(=O)[C@@H](NC(=O)[C@H](Cc1ccccc1)NC(=O)[C@@H](NC(=O)CNC(=O)[C@H](CCC(N)=O)NC(=O)C(C)(C)NC(=O)[C@@H](N)Cc1c[nH]cn1)[C@@H](C)O)[C@@H](C)O)C(=O)N[C@@H](CO)C(=O)N[C@@H](CCCCN)C(=O)N[C@@H](Cc1ccc(O)cc1)C(=O)N[C@@H](CC(C)C)C(=O)N[C@@H](CC(=O)O)C(=O)N[C@@H](CCC(=O)O)C(=O)N[C@@H](CCCNC(=N)N)C(=O)N[C@@H](C)C(=O)N[C@@H](C)C(=O)N[C@@H](CCC(N)=O)C(=O)N[C@@H](CC(=O)O)C(=O)N[C@@H](Cc1ccccc1)C(=O)N[C@H](C(=O)N[C@@H](CCC(N)=O)C(=O)N[C@@H](Cc1c[nH]c2ccccc12)C(=O)N[C@@H](CC(C)C)C(=O)N[C@@H](CC(C)C)C(=O)N[C@@H](CCC(=O)O)C(=O)NCC(=O)NCC(=O)N1CCC[C@H]1C(=O)N[C@@H](CO)C(=O)N[C@@H](CO)C(=O)NCC(=O)N[C@@H](C)C(=O)N1CCC[C@H]1C(=O)N1CCC[C@H]1C(=O)N1CCC[C@H]1C(=O)N[C@@H](CO)C(N)=O)C(C)C)C(=O)O [compound 37] (H-H[Aib]QGTFTSDK([γGlu-Palmitoyl])SKYLDERAAQDFVQWLLEGGPSSGAPPPS-NH2; N-terminus assumed)
EC50 (GIP receptor; [2]): 3 pM
EC50 (glucagon receptor; [2]): 9 pM
EC50 (GLP-1 receptor; [2]): 6 pM

CCCCCCCCCCCCCCCC(=O)N[C@@H](CCC(=O)NCCCC[C@H](NC(=O)[C@H](CC(=O)O)NC(=O)[C@H](CO)NC(=O)[C@@H](NC(=O)[C@H](Cc1ccccc1)NC(=O)[C@@H](NC(=O)CNC(=O)[C@H](CCC(N)=O)NC(=O)C(C)(C)NC(=O)[C@@H](N)Cc1c[nH]cn1)[C@@H](C)O)[C@@H](C)O)C(=O)N[C@@H](CO)C(=O)N[C@@H](CCCCN)C(=O)N[C@@H](Cc1ccc(O)cc1)C(=O)N[C@@H](CC(C)C)C(=O)N[C@@H](CC(=O)O)C(=O)N[C@@H](CCC(=O)O)C(=O)N[C@@H](CCCNC(=N)N)C(=O)N[C@@H](C)C(=O)N[C@@H](C)C(=O)N[C@@H](CCC(N)=O)C(=O)N[C@@H](CC(=O)O)C(=O)N[C@@H](Cc1ccccc1)C(=O)N[C@H](C(=O)N[C@@H](CCC(N)=O)C(=O)N[C@@H](Cc1c[nH]c2ccccc12)C(=O)N[C@@H](CC(C)C)C(=O)N[C@@H](CC(C)C)C(=O)N[C@@H](CC(=O)O)C(=O)NCC(=O)NCC(=O)N1CCC[C@H]1C(=O)N[C@@H](CO)C(=O)N[C@@H](CO)C(=O)NCC(=O)N[C@@H](C)C(=O)N1CCC[C@H]1C(=O)N1CCC[C@H]1C(=O)N1CCC[C@H]1C(=O)N[C@@H](CO)C(N)=O)C(C)C)C(=O)O [compound 10]
EC50 (glucagon receptor; [2]): 5 pM
EC50 (GLP-1 receptor; [2]): 5 pM
